# Assay results as given in ChEMBL document CHEMBL1155188, “Sesquiterpenoids from Pilea cavaleriei subsp. crenata” (Bioorg Med Chem Lett, 2009).
# Active and inactive are the calls of the source. The rule behind the calls is not given here.
# Legend:
# A549 = assay: Cytotoxicity against human A549 cells by SRB assay; type: functional, cell-based
# Staphylococcus aureus = assay: Antibacterial activity against Staphylococcus aureus by microdilution assay; type: functional
# Escherichia coli = assay: Antibacterial activity against Escherichia coli by microdilution assay; type: functional, organism-based
# K562 = assay: Cytotoxicity against human K562 cells after 48 hrs by MTT assay; type: functional, cell-based
# SK-OV-3 = assay: Cytotoxicity against human SKOV3 cells after 48 hrs by MTT assay; type: functional, cell-based
# [1] = Cytotoxicity against human GLC82 cells after 48 hrs by MTT assay; type: functional, cell-based
# SGC-7901 = assay: Cytotoxicity against human SGC7901 cells after 48 hrs by MTT assay; type: functional, cell-based
# [2] = Cytotoxicity against human AGZY cells after 48 hrs by MTT assay; type: functional, cell-based
# MCF7 = assay: Cytotoxicity against human MCF7 cells after 48 hrs by MTT assay; type: functional, cell-based; conditions: MCF7, 48 h
# [3] = Cytotoxicity against human BIU87 cells after 48 hrs by MTT assay; type: functional, cell-based
# EJ = assay: Cytotoxicity against human EJ cells after 48 hrs by MTT assay; type: functional, cell-based
# [4] = Homo sapiens, K562, 48 h, read-out: IC50
Compound,IC50 (A549) [µg/mL],MIC (Staphylococcus aureus),MIC (Escherichia coli),IC50 (K562; [4]) [µg/mL],IC50 (SK-OV-3),IC50 [1],"IC50 (SGC-7901; Homo sapiens, SGC-7901, 48 h, read-out: IC50) [µg/mL]","IC50 ([2]; Homo sapiens, AGZY, 48 h, read-out: IC50) [µg/mL]",IC50 (MCF7) [µg/mL],IC50 [3],IC50 (EJ),IC50 (K562; k562),IC50 (SGC-7901; sgc-7901),IC50 ([2]; agzy)
O=c1[nH]cc(F)c(=O)[nH]1 [FLUOROURACIL],2,–,–,–,–,–,–,–,–,–,–,–,–,–
GENTAMICIN,–,0.05 µg/mL,0.05 µg/mL,–,–,–,–,–,–,–,–,–,–,–
C/C1=C\CC(C)(C)C[C@@H](OC(=O)/C=C/c2ccc(O)cc2)C/C(C)=C/CC1,25.6,inactive,inactive,12,Not Active,Not Active,49.4,27.8,40.5,Not Active,Not Active,–,–,–
C=C1CC/C=C(\C)C[C@H](OC(=O)/C=C/c2ccc(O)c([N+](=O)[O-])c2)CC(C)(C)C[C@@H]1O,–,–,–,–,Not Active,Not Active,–,–,–,Not Active,Not Active,Not Active,Not Active,Not Active
CC(C)[C@@H]1CC[C@]2(C)[C@H]3CC[C@]2(C)[C@H](OC(=O)/C=C/c2ccc(O)cc2)[C@@H]13,–,–,–,41.7,Not Active,Not Active,–,–,–,Not Active,Not Active,–,Not Active,Not Active
C=C1CC/C=C(\C)C[C@H](OC(=O)/C=C/c2ccc(O)cc2)CC(C)(C)C[C@@H]1OO,33.4,45 µg/mL,inactive,57.4,Not Active,Not Active,–,–,23.4,Not Active,Not Active,–,Not Active,Not Active
